The values below come from patent publication US10660876B2, “Amino compounds for treatment of medical disorders” (Achillion Pharmaceuticals, Inc., priority 2015, dated 2020).

As usually defined, the IC50 is the midpoint of a concentration-inhibition curve.

In the first experiment the target is Human Factor D (Homo sapiens (Human), UniProt P00746). The experiment can be described thus: Human Factor D Assay. In kind it is biochemical. Particulars: Table 1; Factor D purified from human serum, 80 nM, substrate Z-L-Lys-SBzl; read-out: IC50. As for the experimental part: Example 12. Human Factor D Assay
Chain of Human Factor D (P00746 26-253): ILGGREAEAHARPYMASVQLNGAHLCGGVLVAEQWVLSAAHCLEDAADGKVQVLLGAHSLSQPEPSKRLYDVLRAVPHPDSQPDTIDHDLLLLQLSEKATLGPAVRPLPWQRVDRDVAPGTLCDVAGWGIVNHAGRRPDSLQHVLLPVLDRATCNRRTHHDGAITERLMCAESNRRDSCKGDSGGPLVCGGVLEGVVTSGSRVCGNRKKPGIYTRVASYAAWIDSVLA
Human Factor D (purified from human serum, Complement Technology, Inc.) at 80 nM final concentration is incubated with test compound at various concentrations for 5 minutes at room temperature in 50 mM Tris, 1M NaCl, pH 7.5. A synthetic substrate Z-L-Lys-SBzl and DTNB (Ellman's reagent) are added to final concentrations of 100 μM each. Absorbance at 405 nm (A405) is recorded at 30 second intervals for 30 minutes using a microplate spectrophotometer. IC50 values are calculated by nonlinear regression of complement Factor D reaction rates as a function of test compound concentration.
For the molecule `CC(=O)c1cn(CC(=O)N2C[C@H](F)C[C@H]2C(=O)Nc2nc(-c3ccc4c(c3)CCCC4)cs2)c2ccc(Nc3cncnc3)cc12` [Compound 50, (2S,4R)-1-(2-(3-acetyl-5-(pyrimidin-5-ylamino)-1H-indol-1-yl)acetyl)-4-fluoro-N-(4-(5,6,7,8-tetrahy-dronaphthalen-2-yl)thiazol-2-yl)pyrrolidine-2-carboxamide], the IC50 was more than 10000 nM. For `CC(=O)c1cn(CC(=O)N2C[C@H](F)C[C@H]2C(=O)Nc2noc3cc(C(F)(F)F)ccc23)c2ccc(Nc3cncnc3)cc12` [Compound 52, (2S,4R)-1-(2-(3-acetyl-5-(pyrimidin-5-ylamino)-1H-indol-1-yl)acetyl)-4-fluoro-N-(6-(trifluoromethyl)benzo[d]isoxazol-3-yl)pyrrolidine-2-carboxamide], the IC50 was in the range of 1000 to 10000 nM. For `CC(=O)c1cn(CC(=O)N2C[C@H](F)C[C@H]2C(=O)Nc2ccc3ncsc3c2)c2ccc(Nc3cncnc3)cc12` [Compound 56, (2S,4R)-1-(2-(3-acetyl-5-(pyrimidin-5-ylamino)-1H-indol-1-yl)acetyl)-N-(benzo[d]thiazol-6-yl)-4-fluoropyrrolidine-2-carboxamide], the IC50 is less than 1000 nM. On the same count and under the same terms, the same measure for `CC(=O)c1cn(CC(=O)N2C[C@H](F)C[C@H]2C(=O)Nc2cc(C)nn2-c2ccccc2F)c2ccc(Nc3cncnc3)cc12` [Compound 57, (2S,4R)-1-(2-(3-acetyl-5-(pyrimidin-5-ylamino)-1H-indol-1-yl)acetyl)-4-fluoro-N-(1-(2-fluorophenyl)-3-methyl-1H-pyrazol-5-yl)pyrrolidine-2-carboxamide]: less than 1000 nM; for `CC(=O)c1cn(CC(=O)N2C[C@H](F)C[C@H]2C(=O)NC2CCCN(c3ccccc3Cl)C2=O)c2ccc(Nc3cncnc3)cc12` (stereo partly drawn) [Compound 58, (2S,4R)-1-(2-(3-acetyl-5-(pyrimidin-5-ylamino)-1H-indol-1-yl)acetyl)-N-(1-(2-chlorophenyl)-2-oxopiperidin-3-yl)-4-fluoropyrrolidine-2-carboxamide]: less than 1000 nM; for `CC(=O)c1cn(CC(=O)N2C[C@H](F)C[C@H]2C(=O)NCc2ccncc2)c2ccc(Nc3cncnc3)cc12` [Compound 59, (2S,4R)-1-(2-(3-acetyl-5-(pyrimidin-5-ylamino)-1H-indol-1-yl)acetyl)-4-fluoro-N-(pyridin-4-ylmethyl) pyrrolidine-2-carboxamide]: less than 1000 nM. As for `CC(=O)c1cn(CC(=O)N2C[C@H](F)C[C@H]2C(=O)Nc2nc(-c3cccc(Cl)c3)ns2)c2ccc(Nc3cncnc3)cc12` [Compound 60, (2S,4R)-1-(2-(3-acetyl-5-(pyrimidin-5-ylamino)-1H-indol-1-yl)acetyl)-N-(3-(3-chlorophenyl)-1,2,4-thiadiazol-5-yl)-4-fluoropyrrolidine-2-carboxamide], the IC50 is more than 10000 nM. On the same count and under the same terms, the same measure for `CC(=O)c1cn(CC(=O)N2C[C@H](F)C[C@H]2C(=O)Nc2ccccc2-c2nncn2C)c2ccc(Nc3cncnc3)cc12` [Compound 61, (2S,4R)-1-(2-(3-acetyl-5-(pyrimidin-5-ylamino)-1H-indol-1-yl)acetyl)-4-fluoro-N-(2-(4-methyl-4H-1,2,4-triazol-3-yl)phenyl) pyrrolidine-2-carboxamide]: more than 10000 nM; for `CC(=O)c1cn(CC(=O)N2C[C@H](F)C[C@H]2C(=O)Nc2noc(-c3ccccc3Cl)n2)c2ccc(Nc3cncnc3)cc12` [Compound 62, (2S,4R)-1-(2-(3-acetyl-5-(pyrimidin-5-ylamino)-1H-indol-1-yl)acetyl)-N-(5-(2-chlorophenyl)-1,2,4-oxadiazol-3-yl)-4-fluoropyrrolidine-2-carboxamide]: less than 1000 nM. `CC(=O)c1cn(CC(=O)N2C[C@H](F)C[C@H]2C(=O)NC2CCCN(c3cc(C)ccc3F)C2=O)c2ccc(Nc3cncnc3)cc12` (stereo partly drawn) [Compound 63, (2S,4R)-1-(2-(3-acetyl-5-(pyrimidin-5-ylamino)-1H-indol-1-yl)acetyl)-4-fluoro-N-(1-(2-fluoro-5-methylphenyl)-2-oxopiperidin-3-yl)pyrrolidine-2-carboxamide]: the IC50 is less than 1000 nM. On the same count and under the same terms, the same measure for `CC(=O)c1cn(CC(=O)N2C[C@H](F)C[C@H]2C(=O)NC2CCN(c3ccn(C)n3)C2=O)c2ccc(Nc3cncnc3)cc12` (stereo partly drawn) [Compound 64, (2S,4R)-1-(2-(3-acetyl-5-(pyrimidin-5-ylamino)-1H-indol-1-yl)acetyl)-4-fluoro-N-(1-(1-methyl-1H-pyrazol-3-yl)-2-oxopyrrolidin-3-yl)pyrrolidine-2-carboxamide]: less than 1000 nM; for `CC(=O)c1cn(CC(=O)N2C[C@H](F)C[C@H]2C(=O)Nc2cc(C3CC3C)no2)c2ccc(Nc3cncnc3)cc12` (stereo partly drawn) [Compound 65, (2S,4R)-1-(2-(3-acetyl-5-(pyrimidin-5-ylamino)-1H-indol-1-yl)acetyl)-4-fluoro-N-(3-(2-methylcyclopropyl)isoxazol-5-yl)pyrrolidine-2-carboxamide]: less than 1000 nM; for `CC(=O)c1cn(CC(=O)N2C[C@H](F)C[C@H]2C(=O)Nc2n[nH]c(C)c2-c2ccccc2)c2ccc(Nc3cncnc3)cc12` [Compound 66, (2S,4R)-1-(2-(3-acetyl-5-(pyrimidin-5-ylamino)-1H-indol-1-yl)acetyl)-4-fluoro-N-(5-methyl-4-phenyl-1H-pyrazol-3-yl)pyrrolidine-2-carboxamide]: less than 1000 nM. Consider `CC(=O)c1cn(CC(=O)N2C[C@H](F)C[C@H]2C(=O)Nc2nn(C)c3c2CC(C)C(=O)N3)c2ccc(Nc3cncnc3)cc12` (stereo partly drawn) [Compound 67, (2S 4R)-1-(2-(3-acetyl-5-(pyrimidin-5-ylamino)-1H-indol-1-yl)acetyl)-N-(1,5-dimethyl-6-oxo-4,5,6,7-tetrahydro-1H-pyrazolo[3,4-b]pyridin-3-yl)-4-fluoropyrrolidine-2-carboxamide], for which the IC50 fell in the range of 1000 to 10000 nM. Same read-out and setting: the same measure for `CC(=O)c1cn(CC(=O)N2C[C@H](F)C[C@H]2C(=O)Nc2cccc(O)n2)c2ccc(Nc3cncnc3)cc12` [Compound 68, (2S,4R)-1-(2-(3-acetyl-5-(pyrimidin-5-ylamino)-1H-indol-1-yl)acetyl)-4-fluoro-N-(6-hydroxypyridin-2-yl)pyrrolidine-2-carboxamide]: less than 1000 nM; for `CC(=O)c1cn(CC(=O)N2C[C@H](F)C[C@H]2C(=O)N[C@@H]2CCC[C@H]2O)c2ccc(Nc3cncnc3)cc12` [Compound 69, (2S,4R)-1-(2-(3-acetyl-5-(pyrimidin-5-ylamino)-1H-indol-1-yl)acetyl)-4-fluoro-N-((1R,2R)-2-hydroxy-cyclopentyl) pyrrolidine-2-carboxamide]: 1000 to 10000 nM. With `CC(=O)c1cn(CC(=O)N2C[C@H](F)C[C@H]2C(=O)Nc2ccc(O)cn2)c2ccc(Nc3cncnc3)cc12` [Compound 70, (2S,4R)-1-(2-(3-acetyl-5-(pyrimidin-5-ylamino)-1H-indol-1-yl)acetyl)-4-fluoro-N-(5-hydroxypyridin-2-yl)pyrrolidine-2-carboxamide], the 50% inhibitory concentration (IC50) lay in the range of 1000 to 10000 nM. Still for that read-out and setting: the same measure for `CC(=O)c1cn(CC(=O)N2C[C@H](F)C[C@H]2C(=O)Nc2cccc3c2NC(=O)C(C)O3)c2ccc(Nc3cncnc3)cc12` (stereo partly drawn) [Compound 71, (2S,4R)-1-(2-(3-acetyl-5-(pyrimidin-5-ylamino)-1H-indol-1-yl)acetyl)-4-fluoro-N-(2-methyl-3-oxo-3,4-dihydro-2H-benzo[b][1,4]oxazin-5-yl)pyrrolidine-2-carboxamide]: 1000 to 10000 nM; for `CC(=O)c1cn(CC(=O)N2C[C@H](F)C[C@H]2C(=O)Nc2cc(O)ccn2)c2ccc(Nc3cncnc3)cc12` [Compound 72, (2S,4R)-1-(2-(3-acetyl-5-(pyrimidin-5-ylamino)-1H-indol-1-yl)acetyl)-4-fluoro-N-(4-hydroxypyridin-2-yl)pyrrolidine-2-carboxamide]: less than 1000 nM; for `CC(=O)c1cn(CC(=O)N2C[C@H](F)C[C@H]2C(=O)Nc2nccc(Cl)n2)c2ccc(Nc3cncnc3)cc12` [Compound 73, (2S,4R)-1-(2-(3-acetyl-5-(pyrimidin-5-ylamino)-1H-indol-1-yl)acetyl)-N-(4-chloropyrimidin-2-yl)-4-fluoropyrrolidine-2-carboxamide]: less than 1000 nM.

In the case of `CC(=O)c1cn(CC(=O)N2C[C@H](F)C[C@H]2C(=O)N[C@H](C)c2oc3ccc(F)cc3c2C)c2ccc(Nc3cncnc3)cc12` [Compound 74, (2S,4R)-1-(2-(3-acetyl-5-(pyrimidin-5-ylamino)-1H-indol-1-yl)acetyl)-4-fluoro-N-((R)-1-(5-fluoro-3-methyl-benzofuran-2-yl)ethyl) pyrrolidine-2-carboxamide], the IC50 is more than 10000 nM.

For the molecule `CC(=O)c1cn(CC(=O)N2C[C@H](F)C[C@H]2C(=O)N[C@@H](C)c2oc3ccc(F)cc3c2C)c2ccc(Nc3cncnc3)cc12` [Compound 75, (2S,4R)-1-(2-(3-acetyl-5-(pyrimidin-5-ylamino)-1H-indol-1-yl)acetyl)-4-fluoro-N-((S)-1-(5-fluoro-3-methylbenzofuran-2-yl)ethyl) pyrrolidine-2-carboxamide], the IC50 was less than 1000 nM.

Still in this experiment, the particulars now being: Table 2; Factor D purified from human serum, 80 nM, substrate Z-L-Lys-SBzl; read-out: IC50.
Consider `COCCOc1ncc(Nc2ccc3c(c2)c(C(C)=O)cn3CC(=O)N2C[C@H](F)C[C@H]2C(=O)Nc2cccc(Br)n2)cn1` [Compound 76, (2S,4R)-1-(2-(3-acetyl-5-(2-(2-methoxyethoxy)pyrimidin-5-ylamino)-1H-indol-1-yl)acetyl)-N-(6-bromopyridin-2-yl)-4-fluoropyrrolidine-2-carboxamide], for which the 50% inhibitory concentration (IC50) was less than 1000 nM.

Staying with this experiment, now noted: Table 3; Factor D purified from human serum, 80 nM, substrate Z-L-Lys-SBzl; read-out: IC50 (Stars).
As to `CC(=O)c1cn(CC(=O)N2C[C@H](F)C[C@H]2C(=O)NCc2ccccc2)c2ccc(Nc3cccnc3)cc12` [Compound 146, (2S,4R)-1-(2-(3-acetyl-5-(pyridin-3-ylamino)-1H-indol-1-yl)acetyl)-N-benzyl-4-fluoropyrrolidine-2-carboxamide], the half-maximal inhibitory concentration (IC50) is less than 1000 nM.
